Reference: article PMC11435328, “An Innovative Inhibitor with a New Chemical Moiety Aimed at Biliverdin IXβ Reductase for Thrombocytopenia and Resilient against Cellular Degradation” (Pharmaceutics, 2024)
Where two headings read alike, the source gives them in different places.

Key:
rats = system: rats; parameters: method as in PMID 2160137; conditions: cited from earlier work
[1] = target: T1, human BLVRB (half-holo BLVRB) (Homo sapiens, UniProt P30043); parameters: method as in PMID 34957824; conditions: ITC, 25 °C; cited from earlier work
T1 construct: His6 (N, cleaved yes); made in house; host or cells: E. coli BL21(DE3), pET-21b
T1 sequence (P30043 1-206): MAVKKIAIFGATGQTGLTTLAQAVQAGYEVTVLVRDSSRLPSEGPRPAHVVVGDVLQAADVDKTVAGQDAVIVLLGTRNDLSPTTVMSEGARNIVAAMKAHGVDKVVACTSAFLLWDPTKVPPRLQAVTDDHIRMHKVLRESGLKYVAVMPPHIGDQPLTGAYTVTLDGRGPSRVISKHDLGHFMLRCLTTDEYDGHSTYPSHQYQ

[2] = target: T1, human BLVRB (half-holo BLVRB); assay: Isothermal titration calorimetry (ITC) of drug binding to half-holo BLVRB; conditions: 25 °C
Experimental: (§1) The human BLVRB protein was prepared following the previously reported method. Briefly, the N-terminal His6-tagged BLVRB was expressed in the E. coli BL21(DE3) strain using the pET-21b protein expression vector. The transformed E. coli cells were grown in LB and M9 media at 37 °C to express the nonlabeled and isotope-labeled (^15N or ^13C/^15N) BLVRB proteins, respectively. To induce protein expression, 0.5 mM IPTG was added to the cultures when the OD600 reached 0.8, and then the cells were harvested after ~3–4 h. Cells were lysed by sonication in buffer (pH 8.0, 25 mM Tris-HCl, 500 mM NaCl, and 10 mM β-mercaptoethanol). The BLVRB protein was first purified by His-tag affinity column chromatography using the HisTrap HP column (Cytiva). To remove the His-tag, the protein elution was dialyzed in buffer (pH 8.0, 50 mM Tris-HCl, and 1 mM dithiothreitol) overnight at 4 °C, after adding thrombin (~5 units per mg protein). Since thrombin bound to HiTrap-Q HP column at pH 8.0, ion-exchange column chromatography was performed with buffer (pH 8.0, 25 mM Tris-HCl, and 1 mM dithiothreitol), and then the elution was performed with 1.0 M NaCl gradient; BLVRB and thrombin eluted at ~150 and ~300 mM NaCl, respectively. To separate the His6-tagged BLVRB from the completely cleaved BLVRB, the HisTrap HP column was tandemly attached to the next of the HiTrap-Q column. The BLVRB protein was further purified by size exclusion chromatography (SEC) using the HiLoad 16/600 Superdex 75 (Cytiva) with nonbuffered solution (50 mM NaCl and 1 mM dithiothreitol). The protein fractions were concentrated using an ultracentrifugal filter with 10 kDa MWCO (Millipore, Burlington, MA, USA) and then were stored at −70 °C before use. Apo-BLVRB was prepared using the previously reported refolding method, with additional column chromatography steps. Briefly, the purified BLVRB was denatured in buffer (pH 7.5, 25 mM Tris-HCl, 10 mM β-mercaptoethanol, and 6.0 M urea) and then applied to the HisTrap HP column. After washing with buffer (pH 5.0, 25 mM Na-acetate, 10 mM β-mercaptoethanol, and 6.0 M urea), they were eluted with an additional 1.0 M NaCl gradient. After 2-fold dilution with buffer (pH 5.0, 20 mM Na-acetate, 10 mM β-mercaptoethanol, and 6.0 M urea), apo-BLVRB was further purified by cation-exchange column chromatography using the HiTrap-SP column (Cytiva). Protein elution was performed by 1.0 M NaCl gradient in the presence of 6.0 M urea. The protein was refolded by dialysis in buffer (pH 6.5, 50 mM Bis-tris, 150 mM NaCl, and 1 mM DTT). After removing the aggregate (~20%) by centrifuge, it was purified by SEC using the HiLoad 16/600 Superdex 75 with buffer (pH 6.5, 10 mM Bis-tris, 50 mM NaCl, and 1 mM DTT). The apo-BLVRB solution was concentrated and then stored at −70 °C. Although thawing the frozen sample caused ~10% precipitation of apo-BLVRB, the maintenance of the structure was confirmed by ^1H-^15N HSQC spectrum. The concentration was also determined using UV absorption with an extinction coefficient (A280) of 14,440 M^−1⋅cm^−1. The purity was confirmed by SDS-PAGE gel analysis.
The ITC experiment was conducted in buffer (pH 6.5, 50 mM Bis-tris, 50 mM NaCl, and 0.1 mM TCEP) using a Microcal Auto-iTC200 (Malvern Instruments, Malvern, UK) at 25 °C. The calorimetric cell (200 μL) and syringe (40 μL) were loaded with 0.09 mM BLVRB and 1.1 mM drug (OSK or OSA), respectively. The ITC data were analyzed after subtracting the heat from blank injections that were measured under the same conditions but in the absence of BLVRB. Data processing was carried out using the Origin software provided by the manufacturer, where the fittings were performed with a one-site binding model.

BLVRB = target: T2, BLVRB (Homo sapiens, UniProt P30043); assay: BLVRB enzyme activity assay (NADPH absorption at 340 nm, FMN substrate); type: biochemical; conditions: for uncompetitive inhibition constant (Kiu) / Ki: 0.5 µM BLVRB, 100 µM FMN, 100 µM NADPH, PBS, 0.5% DMSO, mixed inhibition model; for Ki: read-out: competitive inhibition constant (Kic); for inhibition pattern (Lineweaver–Burk plot): BLVRB in the presence of NADPH; for maximum velocity (Vm): enzyme parameter of BLVRB from the fit of the data set with this inhibitor
T2 construct: His6 (N, cleaved yes); made in house; host or cells: E. coli BL21(DE3), pET-21b
T2 sequence (P30043 1-206): T1 sequence (P30043 1-206)
Experimental: Enzyme kinetics were monitored using the absorption of NADPH at 340 nm with the SpectraMax Gemini EM Microplate Reader (Molecular Devices, San Jose, CA, USA). The enzyme reactions were conducted with 0.5 µM BLVRB, 100 µM FMN, and 100 µM NADPH in PBS buffer containing 0.5% DMSO in the presence of various concentrations of inhibitors (OSK and OSA). The initial velocities of the reactions were estimated from data collected over 5 min and were fitted to the Michaelis–Menten equation. The inhibition model and inhibition constants were determined using the in-house Python script of nonlinear least squares regression fitting.

apo-BLVRB = target: T3, apo-BLVRB (Homo sapiens, UniProt P30043); assay: NMR 1H-15N HSQC chemical shift perturbation titration of apo-BLVRB; type: binding; conditions: for Kd: Apo-BLVRB from NMR CSP experiment; for binding to apo-BLVRB: HSQC of apo-BLVRB titrated with drug (Figure S4)
T3 construct: His6 (N); made in house; host or cells: E. coli BL21(DE3), pET-21b
T3 sequence (P30043 1-206): T1 sequence (P30043 1-206)
Experimental: as §1, with “After 2-fold dilution with buffer (pH 5.0, 20 mM Na-acetate, 10 mM β-mercaptoethanol, and 6.0 M urea), apo-BLVRB was further purified by cation-exchange column chromatography using the HiTrap-SP column (Cytiva). Protein elution was performed by 1.0 M NaCl gradient in the presence of 6.0 M urea. The protein was refolded by dialysis in buffer (pH 6.5, 50 mM Bis-tris, 150 mM NaCl, and 1 mM DTT). After removing the aggregate (~20%) by centrifuge, it was purified by SEC using the HiLoad 16/600 Superdex 75 with buffer (pH 6.5, 10 mM Bis-tris, 50 mM NaCl, and 1 mM DTT). The apo-BLVRB solution was concentrated and then stored at −70 °C. Although thawing the frozen sample caused ~10% precipitation of apo-BLVRB, the maintenance of the structure was confirmed by ^1H-^15N HSQC spectrum.” left out, “The purity was confirmed by SDS-PAGE gel analysis.” left out
(§2) All NMR experiments were performed with the Bruker 800 MHz spectrometer at 25 °C. A total of 0.2 mM ^15N-labeled BLVRB or apo-BLVRB was prepared in buffer (pH 6.5, 50 mM Bis-tris, 50 mM NaCl, and 5% D2O), and their ^1H-^15N heteronuclear single-quantum coherence (HSQC) spectra were recorded in the presence and absence of drug molecules. […] The diffusion-ordered spectroscopy (DOSY) spectra were measured using the ledbpgppr2s, with 80 ms diffusion delay, 2 s relaxation delay, and 32 gradient strength increments. […]

[3] = system: T4, Escherichia coli (E. coli) AzoR; assay: Cleavage by partially purified AzoR fraction, monitored by 1D 1H NMR; type: in vitro ADME; conditions: incubation with column fraction containing AzoR activity and NAD(P)H
T4 construct: E. coli DH5α cells were cultured in LB medium to obtain AzoR protein at 37 °C; endogenous in cells; host or cells: E. coli DH5α induced with 2-MHQ; Hitrap-Q anion-exchange fraction
Experimental: E. coli DH5α cells were cultured in LB medium to obtain AzoR protein at 37 °C. Since various electrophilic quinones increase the mRNA level of the acpD gene-encoding AzoR protein [36], 0.5 mM methylhydroquinone (2-MHQ) was added to the culture when the optical density of the cells at 600 nm (OD600) reached 0.8. The cells were harvested by centrifugation after ~3–4 h. To enrich the AzoR protein, anion-exchange column chromatography using the Hitrap-Q HP column (Cytiva, Marlborough, MA, USA) was performed, in which the column was pre-equilibrated with buffer (pH 8.0, 25 mM Tris-HCl), and then 1.0 M NaCl gradient was applied to elute proteins. The AzoR activity in the elution fractions was measured by the enzyme activity assay using 0.1 mM menadione and 0.1 mM NADH, in which decreasing absorption at 340 nm was measured following the previously reported method. […]
as §2

[4] = cited from earlier work
half-holo BLVRB = system: T5, half-holo BLVRB; assay: 1H-15N HSQC of half-holo BLVRB with 5-ASA; type: binding, human; conditions: 0.1 mM half-holo BLVRB, 1 mM 5-ASA, HSQC (Figure S3)
T5 construct: His6 (N, cleaved yes); made in house; host or cells: E. coli BL21(DE3), pET-21b
Experimental: All NMR experiments were performed with the Bruker 800 MHz spectrometer at 25 °C. A total of 0.2 mM ^15N-labeled BLVRB or apo-BLVRB was prepared in buffer (pH 6.5, 50 mM Bis-tris, 50 mM NaCl, and 5% D2O), and their ^1H-^15N heteronuclear single-quantum coherence (HSQC) spectra were recorded in the presence and absence of drug molecules. The 1-dimensional (1D) ^1H spectra to monitor the enzyme reactions were conducted in PBS buffer. The chemical shift perturbation (CSP) data were presented using the square root of (ΔH)^2 + [(ΔN)/6]^2 to normalize the relative effects from the CSPs of ^1H and ^15N [44]. The diffusion-ordered spectroscopy (DOSY) spectra were measured using the ledbpgppr2s, with 80 ms diffusion delay, 2 s relaxation delay, and 32 gradient strength increments. The backbone assignments were referenced from BMRB Entry ID: 27463 for holo BLVRB and Entry ID: 27462 for apo BLVRB to assign the spectra in the presence and absence of the drug.
Figure S3. 5-ASA binding of half-holo BLVRB: (A) The 1H-15N HSQC spectra of 0.1 mM half-holo BLVRB in the absence (black) and presence (red) of 1 mM 5-ASA. (B) Chemical shift diﬀerences between half-holo BLVRB and BLVRB in complex with OSK (black) and 5-ASA (red). (C) NMR ti-tration data for binding to half-holo BLVRB. […]

Compound	Kd [2]	TΔS [2]	ΔG [2]	ΔH [2]	uncompetitive inhibition constant (Kiu) (BLVRB)	Ki (BLVRB)	inhibition pattern (Lineweaver–Burk plot) (BLVRB)	maximum velocity (Vm) (BLVRB)	Kd (apo-BLVRB)	binding to apo-BLVRB (apo-BLVRB)	cleavage by AzoR [3]	other results
O=C1OC2(c3ccccc31)c1cc(I)c(O)c(I)c1Oc1c2cc(I)c(O)c1I [erythrosin B]												effect of chronic administration (rats): thyroid stimulation
O=C([O-])c1c(Cl)c(Cl)c(Cl)c(Cl)c1-c1c2cc(Br)c(=O)c(Br)c-2oc2c(Br)c([O-])c(Br)cc12.[Na+].[Na+] [Phloxine B, phloxine B]												Kd [1]: 1360 ± 220 nM; TΔS [1]: 4.12 ± 0.12 kcal/mol; ΔG [1]: -8.00 ± 0.10 kcal/mol; ΔH [1]: -3.88 ± 0.06 kcal/mol
O=C(O)c1cc(/N=N/c2ccc(O)c(C(=O)O)c2)ccc1O [Olsalazine, olsalazine]	150 ± 230 nM	-4.22 ± 0.13 kcal/mol	-9.32 ± 0.09 kcal/mol	-13.54 ± 0.08 kcal/mol	0.79 ± 0.06 µM	550 ± 40 nM	mixed inhibition pattern	4.71 ± 0.09 µM/min	9.31 ± 2.41 µM	able to bind to the apo-BLVRB	cleavage of its diazenyl bond and the formation of 5-ASA	plasma elimination half-life [4]: approximately 1 h
O=C(O)c1cc(/C=C/c2ccc(O)c(C(=O)O)c2)ccc1O [Olsalkene, (E)-5,5′-(ethene-1,2-diyl)bis(2-hydroxybenzoic acid)]	140 ± 270 nM	-5.98 ± 0.17 kcal/mol	-9.33 ± 0.11 kcal/mol	-15.31 ± 0.12 kcal/mol	0.61 ± 0.06 µM	560 ± 100 nM	mixed inhibition pattern	4.80 ± 0.16 µM/min	11.4 ± 2.22 µM	able to bind to the apo-BLVRB	remains intact and is not cleaved by AzoR	
Nc1ccc(O)c(C(=O)O)c1 [5-ASA, 5-aminosalicylic acid]												binding to BLVRB (half-holo BLVRB): reduced significantly
